Data: patent US9309212B2, “Compositions and methods for modulating the activity of Epstein-Barr nuclear antigen 1” (The Wistar Institute, priority 2011, dated 2016)

B1: EBNA1 BS Hairpin (opl 3016 / opl 4624) (structured_DNA)
DNA: GGGTAGCATATGCTATCTAGATAGCATATGCTACCC

The molecules below were run against T1, EBNA1 (Epstein-Barr virus, UniProt P03211) (assay: cell-based assay (EBNA1 transcription derepression assay, Qp-luciferase reporter in 293T cells)). Conditions: final concentration range 125 μM-2 nM, 125000 nM = not active.
T1 construct: expressed in transfected cells; host or cells: 293T cells
Experimental: EBNA1 Transcription Derepression Assay.
293T cells were seeded in 10-cm plates in DMEM media with 10% FBS. Following a 18-hour incubation at 37° C. to allow cells to adhere, cells at 50-70% confluence were transfected using 40 μL LIPOFECTAMINE (INVITROGEN) per plate. The cells were transfected with a 4 μg Qp-luciferase reporter plasmid (N1852) and 0.125 μg EBNA1 expression plasmid (N803) or 4 μg Qp-luciferase reporter plasmid (N1852) and 0.125 μg control plasmid (N799) (no EBNA) per plate. After 24 hours, the cells were harvested without trypsin, centrifuged 1200 RPM for 5 minutes and resuspended in DMEM media with 10% FBS at a concentration 100,000 cells per milliliter. Forty μL of this solution […] was dispensed to each well of the white plate using a BIOTEK MICROFLO Select Dispenser. Test compounds were added to achieve a final concentration range of 125 μM-2 nM, as described above. Cells were incubated at 37° C. for 48 hours, harvested and analyzed for luciferase activity using the PROMEGA STEADY-GLO luciferase system and read using a PERKIN ELMER 2104 Multilabel Reader.
Compounds were screened for activity in the cell-based assay disclosed herein.

T1 sequence (P03211 whole entry): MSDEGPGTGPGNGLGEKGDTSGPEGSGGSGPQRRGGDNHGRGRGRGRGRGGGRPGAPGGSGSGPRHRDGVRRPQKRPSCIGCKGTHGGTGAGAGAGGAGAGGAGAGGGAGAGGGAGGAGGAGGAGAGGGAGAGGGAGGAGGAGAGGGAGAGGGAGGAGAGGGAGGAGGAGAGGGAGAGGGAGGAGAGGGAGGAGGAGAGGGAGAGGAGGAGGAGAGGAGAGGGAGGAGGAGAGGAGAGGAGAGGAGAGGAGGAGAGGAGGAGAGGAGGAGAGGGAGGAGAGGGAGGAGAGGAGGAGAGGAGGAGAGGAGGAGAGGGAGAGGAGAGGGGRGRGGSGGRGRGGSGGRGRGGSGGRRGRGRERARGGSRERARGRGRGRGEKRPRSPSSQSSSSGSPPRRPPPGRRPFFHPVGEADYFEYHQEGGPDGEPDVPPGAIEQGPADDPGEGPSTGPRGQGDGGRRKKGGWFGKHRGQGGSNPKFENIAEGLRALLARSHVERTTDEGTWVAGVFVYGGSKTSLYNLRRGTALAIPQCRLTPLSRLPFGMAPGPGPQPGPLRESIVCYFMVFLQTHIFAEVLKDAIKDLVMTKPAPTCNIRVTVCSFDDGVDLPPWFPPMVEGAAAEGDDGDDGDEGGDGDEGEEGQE

Compared with `O=C(Oc1ccc(Cl)cc1)c1ccc2occc2c1` [VKE01441], `CC(C)(C)c1ccc(OC(=O)c2ccc3occc3c2)cc1` [VKE01442] is 3.4-fold lower in IC50: 9.06 µM for the first, 2.63 µM for the second.

Going from `O=C(Cc1ccc(Cl)cc1Cl)Oc1ccc2occ([N+](=O)[O-])c2c1` [VKE01443] to `O=C(Oc1ccc2occ([N+](=O)[O-])c2c1)c1ccc(F)cc1Cl` [VKE01451], the IC50 falls from greater than 125 µM to 3.28 µM. The second is the more potent here.

`O=C(Oc1ccc2occ([N+](=O)[O-])c2c1)c1cccnc1` [VKE01444] and `O=C(Oc1ccc2occ([N+](=O)[O-])c2c1)c1ccno1` [VKE01447] cannot be ordered by IC50: greater than 125 µM for the first, greater than 125 µM for the second.

`O=C(Oc1ccc2occ([N+](=O)[O-])c2c1)c1ccncn1` [VKE01445] and `O=C(Oc1ccc2occ([N+](=O)[O-])c2c1)c1ncccc1C(F)(F)F` [VKE01446] cannot be ordered by IC50: greater than 125 µM for the first, greater than 125 µM for the second.

Going from `O=C(Oc1ccc2occ([N+](=O)[O-])c2c1)c1ccc(N2CCOCC2)cc1` [VKE01448] to `CCCCc1ccc(C(=O)Oc2ccc3occ([N+](=O)[O-])c3c2)cc1` [VKE01453], the IC50 falls from 30.6 µM to 1.24 µM (25-fold). The second is the more potent here.

First: O=C(Oc1ccc2occ([N+](=O)[O-])c2c1)c1ccccc1C(F)(F)F [VKE01449]
Second: CCc1ccccc1C(=O)Oc1ccc2occ([N+](=O)[O-])c2c1 [VKE01450]
The IC50 of the first is higher: greater than 125 µM for the first, 9.02 µM for the second. The second is the more potent here.

Compared with `Cc1cc(C)cc(CC(=O)Oc2ccc3occ([N+](=O)[O-])c3c2)c1` [VKE01452], `O=[N+]([O-])c1coc2ccc(OCc3ccc(Cl)cc3)cc12` [VKE01454] is lower in IC50: greater than 125 µM for the first, 9.78 µM for the second.

Compared with `O=[N+]([O-])c1coc2ccc(OCc3ccccc3)cc12` [VKE01455], `O=[N+]([O-])c1coc2ccc(OCc3ccc(OC(F)(F)F)cc3)cc12` [VKE01456] is 1.9-fold lower in IC50: 27.2 µM for the first, 14 µM for the second.

Compared with `O=C(Nc1ccc2occc2c1)c1ccc(F)cc1Cl` [VKE01457], `Cc1cc(NC(=O)c2ccc3occc3c2)ccc1Cl` [VKE01470] is 2.2-fold higher in IC50: 0.0189 µM for the first, 0.042 µM for the second.

Going from `O=C(Nc1ccc2occc2c1)c1ccc(C(F)(F)F)cc1` [VKE01458] to `O=C(Nc1ccc2occc2c1)c1ccccc1C(F)(F)F` [VKE01459], the IC50 rises from 0.00476 µM to 6.52 µM (1400-fold). The first is the more potent here.

Going from `CCCCc1ccc(C(=O)Nc2ccc3occc3c2)cc1` [VKE01460] to `CC(C)(C)c1ccc(NC(=O)c2ccc3occc3c2)cc1` [VKE01469], the IC50 rises from 0.0123 µM to 0.0627 µM (5.1-fold).

`CCc1ccccc1C(=O)Nc1ccc2occc2c1` [VKE01461] and `O=C(Nc1ccc2occc2c1)c1cccnc1` [VKE01463] are within 1.5-fold of each other in IC50: 1.02 µM for the first, 1.26 µM for the second.

First: O=C(Nc1ccc2occc2c1)c1ccc(N2CCOCC2)cc1 [VKE01462]
Second: O=C(Nc1cccc(Cl)c1)c1ccc2occc2c1 [VKE01468]
The IC50 of the first is 2.7-fold lower: 0.298 µM for the first, 0.813 µM for the second.

Going from `O=C(Nc1ccc2occc2c1)c1ncccc1C(F)(F)F` [VKE01464] to `O=C(Nc1ccc2occc2c1)c1ccno1` [VKE01466], the IC50 rises from 1.09 µM to 83.8 µM (77-fold). The first is the more potent here.

Compared with `O=C(Nc1ccc2occc2c1)c1ccncn1` [VKE01465], `O=C(Nc1ccncc1)c1ccc2occc2c1` [VKE01473] is 13-fold higher in IC50: 1.66 µM for the first, 20.8 µM for the second.

First: O=C(Nc1ccccc1F)c1ccc2occc2c1 [VKE01467]
Second: O=C(Nc1ccccn1)c1ccc2occc2c1 [VKE01472]
The IC50 of the first is 4.4-fold higher: 0.674 µM for the first, 0.152 µM for the second.

First: O=C(Nc1ccc(F)c(F)c1)c1ccc2occc2c1 [VKE01471]
Second: Cc1csc(NC(=O)c2ccc3occc3c2)n1 [VKE01474]
The IC50 of the first is 14-fold higher: 0.847 µM for the first, 0.0602 µM for the second. The second is the more potent here.

Each molecule was assayed against EBNA1 DNA binding domain (Human herpesvirus 4, UniProt P03211 SEQ:454-607) (assay: FP; 200 mM NaCl, 20 mM Tris-Cl pH 7.4, 1 mM DTT, 10 ug/mL BSA, 25 C; 5 nM probe; probe performed significantly better in FP than in EMSA comparison). Conditions: tags: hexa-histidine, E. coli expressed; chain copies: 2; label: CY5 (opl 3016) or FITC (opl 4624); hairpin.
EBNA1 DNA binding domain, sequence (P03211 454-607): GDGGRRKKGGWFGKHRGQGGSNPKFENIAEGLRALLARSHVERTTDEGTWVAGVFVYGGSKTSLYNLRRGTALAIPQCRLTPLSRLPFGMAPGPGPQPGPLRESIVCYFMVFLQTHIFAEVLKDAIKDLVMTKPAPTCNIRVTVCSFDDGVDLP

B1: binds.
